Key:
A375 melanoma cells [1] = assay: LDH release membrane integrity assay, A375; format: cell-based, human; conditions: for LDH release, result in words: IC50 concentrations, 24 h (Table 3, Figure 6C); for A375 (% LDH release): compounds at their IC50 concentrations, 24 h, combinations 1:1, relative to maximum release; for Fold increase in LDH release: selectivity toward melanoma cell membranes, A375 vs HaCat
Text: In order to determine cell membrane integrity, the CytoTox-ONE™ Homogeneous Membrane Integrity Assay (Promega, Madison, WO, USA) was employed. This fluorometric assay measures the release of LDH from cells with damaged cell membranes. […] The manufacturer’s instructions were followed to determine the fluorescence at an excitation wavelength of 560 nm and an emission wavelength of 590 nm. In order to calculate the percentage cytotoxicity, the average fluorescent values of the background medium were subtracted from all average fluorescent values of the experimental samples and the positive control. Cytotoxicity is expressed as a percentage relative to the positive control, which is assumed to be responsible for 100% LDH release. The fold increase in LDH release was taken as the indication of the selectivity toward melanoma cell membranes, calculated as the […]. All experiments were performed at least in triplicate and independently repeated. Statistical significant differences were calculated with one-way ANOVA.
Results are expressed relative to the untreated control and the maximum release sample, which was set as having 0% and 100% LDH release respectively. The LDH released from the nonmalignant HaCat cells and the A375 melanoma cells was then used to deduce the selectivity of the compounds against melanoma cell membranes.

A375 melanoma cells [2] = assay: FITC Annexin V/PI flow cytometry, A375; format: cell-based, human; conditions: A375, 24 h
Experimental: The FITC Annexin V apoptosis detection kit I (BD Pharmigen™, BD Biosciences, San Jose, CA, USA) was used for the detection of apoptosis using flow cytometry. FITC Annexin V emits green fluorescence which indicates apoptosis, whereas propidium iodide (PI) emits red fluorescence and stains dead cells ([Vermes et al., 1995]). The assay was performed according to the manufacturer’s instructions with minor alterations. In brief, cells were seeded in a 96-well plate and grown to ~90% confluence. The cells were exposed to amounts of the prenylated piperazine derivatives and combinations with elesclomol-Cu(II) 1-Cu corresponding to the IC50 values. […] After incubation, 100 µl 1X binding buffer was added to each tube and then analyzed using the BD FACSVerse™ and BD FACSuite™ Software. […] At least 10,000 cellular events were analyzed for each sample. A logarithmic amplification scale was employed and events plotted on forward scatter (FSC), side scatter (SSC), green fluorescence (FL1) and red fluorescence (FL2). […]
Flow cytometry was employed to establish if the observed decrease in cell viability in melanoma cells was of necrotic or apoptotic origin. Cultured melanoma and keratinocyte cells were exposed to predetermined IC50 concentrations of the prenylated piperazine-DHA derivatives and analyzed using the FITC Annexin V/PI flow cytometry assay. […]
Figure 8 Apoptosis measured by FITC Annexin V/PI assay. […]

**Q.** What does the source list for `C[C@@H]1CC[C@H]2[C@@H](C)C(=O)O[C@@H]3O[C@@]4(C)CC[C@@H]1[C@]32OO4` [Artemisinin 2, artemisinin]?
**A.** LDH release, result in words (A375 melanoma cells [1]): did not significantly increase the release of LDH; A375 (% LDH release) (A375 melanoma cells [1]): 24 ± 0.96%; Fold increase in LDH release (A375 melanoma cells [1]): 1.3

**Q.** Which results are given for `C[C@H]1[C@H](N2CCS(=O)(=O)CC2)O[C@@H]2O[C@@]3(C)CC[C@H]4[C@H](C)CC[C@@H]1[C@@]24OO3` [Artemisone 4, artemisone]?
**A.** LDH release, result in words (A375 melanoma cells [1]): did not significantly increase the release of LDH; A375 (% LDH release) (A375 melanoma cells [1]): 27 ± 0.81%; Fold increase in LDH release (A375 melanoma cells [1]): 1.4

**Q.** Which results are given for `CC(C)=CCC/C(C)=C/CC/C(C)=C/CN1CCN([C@@H]2O[C@@H]3O[C@@]4(C)CC[C@H]5[C@H](C)CC[C@@H]([C@H]2C)[C@@]35OO4)CC1` [Farnesylpiperazine-DHA 7, farnesylpiperazine-DHA]?
**A.** A375 (% LDH release) (A375 melanoma cells [1]): 57 ± 1.21%; Fold increase in LDH release (A375 melanoma cells [1]): 3.1; Cells undergoing apoptosis (A375 melanoma cells [2]; IC50 concentrations (6 45 µM, 7 30 µM, 1-Cu 2 nM; combinations 1:1)): 30.5 ± 3.7%

**Q.** With `CC(C)=CCC/C(C)=C/CN1CCN([C@@H]2O[C@@H]3O[C@@]4(C)CC[C@H]5[C@H](C)CC[C@@H]([C@H]2C)[C@@]35OO4)CC1` [Geranylpiperazine-DHA 6, geranylpiperazine-DHA] as the molecule, how does the “A375 (% LDH release)” value (A375 melanoma cells [1]) read?
**A.** 68 ± 0.91%

**Q.** What about the “Fold increase in LDH release” value (A375 melanoma cells [1]) of the same molecule?
**A.** 4.0

**Q.** And the “Late apoptosis/necrosis (FITC-Annexin V positive and PI positive)” value (A375 melanoma cells [2]; 45 µM)?
**A.** 37.7 ± 2.1%

Reference: PMC7552967, “Anti-Melanoma Activities of Artemisone and Prenylated Amino-Artemisinins in Combination With Known Anticancer Drugs” (Frontiers in Pharmacology, 2020)
